Among the data in ChEMBL document CHEMBL5338806, “Rationally Designed Nonapeptides with Great Skin Photoprotective Effect through Producing Type 1 Collagen and Blocking the mTOR Pathway” (J Med Chem, 2023) are Activity values, retold here.

Assay [1] deals with HEK293. The assay is described as follows: Activation of COL1a2 transcriptional activity in HEK293 cells by dual-luciferase reporter assay. It counts as functional, cell-based. Conditions: Homo sapiens. A general note: A reporter such as luciferase makes a cellular process visible.
The subject of assay [2] is Mus musculus. Nature of the assay: Protection against UV radiation-stress induced skin damage in Kunming mouse model assessed as repair of broken skin at 20 ug/ml administered topically and measured every 2 days for 10 days. It counts as functional, organism-based. Conditions: dose 20.0 µg/ml, route top, time 10.0 day.
Assay [3] is described as follows: Antioxidant activity assessed as ROS scavenging activity. It counts as functional.
A short description of assay [4]: Antioxidant activity assessed as DPPH radical scavenging activity by measuring eradication rate at 80 ug/mL incubated for 30 mins by absorbance based assay relative to control. The class given is functional. The settings on record: dose 80.0 µg/ml.
A short description of assay [5]: Antioxidant activity assessed as ABTS radical scavenging activity at 80 ug/mL incubated for 10 mins by absorbance based assay. The settings on record: dose 80.0 µg/ml. It counts as functional.

The structures appear in SMILES notation. Active and inactive are the calls of the source. The calls are words filed in the database; no cut-off is given here. Where a SMILES comes first, the peptide text is derived from it.

On to `CC(C)C[C@H](NC(=O)[C@H](Cc1c[nH]c2ccccc12)NC(=O)[C@@H]1CCCN1C(=O)[C@@H]1CCCN1C(=O)[C@H](CC(C)C)NC(=O)[C@@H](N)CC(C)C)C(=O)N[C@@H](CCCNC(=N)N)C(=O)N1CCC[C@H]1C(=O)N[C@@H](CCCCN)C(=O)N[C@@H](CS)C(=O)N[C@@H](CO)C(=O)O` (H-LLPPWLRPKCS-OH), for which the result in assay [1] was Active.

For `CC(C)C[C@H](NC(=O)[C@@H](N)C(C)C)C(=O)N[C@@H](CCCCN)C(=O)N[C@@H](CCCCN)C(=O)N[C@@H](CS)C(=O)O` (H-VLKKC-OH), the outcome in assay [1], in assay [2], in assay [3] and in assay [5] was Active. In addition, the Activity in assay [4] was 96.8%.

Regarding `CC(C)C[C@H](NC(=O)[C@@H](N)C(C)C)C(=O)N1CCC[C@H]1C(=O)N[C@@H](CCCCN)C(=O)N[C@@H](CS)C(=O)N[C@@H](Cc1c[nH]c2ccccc12)C(=O)O` (H-VLPKCW-OH), in assay [3], the outcome was Active.

On to `CC(C)C[C@H](NC(=O)[C@H](CCCCN)NC(=O)[C@@H]1CCCN1C(=O)[C@H](CC(C)C)NC(=O)[C@@H](N)C(C)C)C(=O)N[C@@H](CCC(=O)O)C(=O)N[C@@H](CS)C(=O)N[C@H](C(=O)N[C@@H](Cc1c[nH]c2ccccc12)C(=O)O)C(C)C` (H-VLPKLECVW-OH), for which, in assay [1], the outcome was Active.
